Common to all, as to assay type: cell-based, human
Assay [1] relates to PLR123 organoids. Briefly: Regrowth of SN-38-treated PLR123 organoids on re-culture, CellTiter-Glo 3D Cell Viability Assay. The settings on record: BSO 200 μM and/or AUR 200 nM added upon re-culture of SN-38-treated organoids; n=4, FIG. 13. As for the experimental part: Specifically, 7-ethyl-10-hydroxycamptothecin (SN-38, Cat #H0165, Merck) was added to the organoids (day 10) prepared in Example 1-1 at a concentration of 300 nM and culture was carried out for three days (SN-38 treatment). After culturing, organoids were recovered by decomposing Matrigel with Dispase I (Cat #386-02271, Fujifilm Wako Pure Chemical Corporation), washed with Cellotion (Cat #CB051, Nippon Zenyaku Kogyo Co., Ltd.), and the washed organoids were suspended in a new Matrigel and dispensed at 20 μL/well into a 96-well plate in which 20-30 μL/well of Matrigel was gelled beforehand. By centrifuging immediately after dispensing, the organoids were aligned on a single plane, making it easier to observe under a microscope. After gelling Matrigel at 37° C., 200 μL/well of an organoid culture medium (Example 1-1) was added and re-culture was carried out at 37° C. in a 5% CO2 environment.
In order to confirm the contribution of GPX1 and GPX2 towards the regrowth of organoids, the gamma-glutamylcysteine synthetase inhibitor L-buthionine-sulfoximine (BSO, Cat #B2515, Merck, 200 μM) and the thioredoxin reductase inhibitor auranofin (AUR, Cat #A6733, Merck, 200 nM) were added upon re-culture in the re-culture method of Example 2-1, and cell proliferation was measured by CellTiter-Glo 3D Cell Viability Assay (FIG. 12).
(In general: ATP-based viability assays read luminescence as a measure of living cells.)

In assay [2] the test system is GPX1. The assay is described as follows: RNA-seq gene expression analysis of SN-38-treated organoids. The note with it: organoids day 10 treated with 300 nM SN-38 for three days vs untreated organoids; n=3, FIG. 10. As for the experimental part:
(§1) The gene expression of the organoids prepared in Example 1-1 was analyzed by RNA-seq. First, total RNA was prepared from 2D-cultured cells and 3D-cultured organoids (day 10) cultured in Example 1-1 using TRIzol Reagent (Cat #15596018, Thermo Fisher Scientific). The quality of the purified total RNA was verified through RNA integrity number (RIN) measured using an Agilent 2100 Bioanalyzer (Agilent) to confirm that the RIN was greater than 9. Next, cDNAs were synthesized and amplified from 1 ng of total RNA using the SMART-Seq v4 Ultra Low Input RNA Kit for Sequencing (Takara Bio). Subsequently, a library was prepared using the Nextera XT DNA Library Prep kit (Illumina), and sequenced at 75 bp paired-end reads using the NextSeq500 system (Illumina). The obtained sequence information was mapped to NCBI RefSeq transcript sequence using RSEM software (v1.2.31), and the gene expression level was calculated by FPKM (Fragments Per Kilobase of exon model per Million mapped reads).
(§2) Gene expression analysis was performed on the organoids of Example 1-1 (day 10) and the SN-38-treated organoids of Example 2-1 using RNA-seq in the same manner as in Example 1-2 (n=3).

Assay [3] relates to GPX2. The assay is described as above. The note with it: organoids day 10 treated with 300 nM SN-38 for three days vs untreated organoids; n=3, FIG. 10. As for the experimental part:
as §1, §2

In assay [4] the test system is GPX1. The assay is described as follows: IHC protein expression analysis of organoids. The settings on record: immediately after 300 nM SN-38 treatment; expression continued on day 2 of regrowth; FIG. 11. The procedure: (§3) The protein expression of GPX1 (Uniprot ID: P07203, Refseq accession No. NP_000572) and GPX2 (Uniprot ID: P18283, Refseq accession No. NP_002074) was analyzed by IHC. Using an anti-GPX1 antibody (Cat #ab22604, Abcam, 0.5 ng/mL) and an anti-GPX2 antibody (Cat #ab137431, Abcam, 0.5 ng/mL) with the Envision system (Cat #K4003, Agilent) and peroxidase-diaminobenzidine reaction, the organoids of Example 1-1 (day 10), the SN-38-treated organoids of Example 2-1, and the regrowing organoids of Example 2-1 (day 2, day 6) were each stained. The results of IHC analysis confirmed that the expression of GPX1 and GPX2 increased immediately after the treatment with SN-38 and expression continued even on day 2 of regrowth (FIG. 11).

Assay [5] deals with GPX2. The assay is described as follows: IHC protein expression analysis of organoids. The note with it: immediately after 300 nM SN-38 treatment; expression continued on day 2 of regrowth; FIG. 11. As for the experimental part:
as §3

Assay [6] has as its system PLR123 organoids. The assay is described as follows: Pathological (structural) analysis of organoids after SN-38 treatment. The note with it: after 300 nM SN-38 for three days; new luminal structure formed from surviving cells during re-culture; FIG. 7. As for the experimental part: In order to observe the structure of the organoids produced in Example 1-1 in detail, a pathological analysis was performed according to a previous report (J. Toxicol. Pathol. 31, 81-85 (2018)). Specifically, after removing the culture supernatant from each of the three-dimensional cultures (day 7, day 10, day 12, and day 13), 4% paraformaldehyde/phosphate buffer (Cat #09154-14, Nacalai Tesque) was added, and fixation was carried out at room temperature for 30 minutes. Matrigel was decomposed by pipetting, and organoids were collected in a centrifuge tube and washed. Subsequently, the organoids were suspended in a warmed 2% aqueous agarose solution (agarose, Type IX, Cat #A5030, Merck), centrifuged, and then cooled on ice to gel the agarose. This was treated by the AMeX method and embedded in paraffin. Paraffin blocks were sliced and stained with hematoxylin and eosin (HE) or Alcian blue-Periodic acid-Schiff (AB-PAS) by standard methods. Further, anti-LGR5 antibody (clone 2U2E-2 (Stem Cells, 30, 2631-2644 (2012))) and anti-Ki-67 antibody (clone MIB-1, Cat #M7240, Agilent) were used for immunofluorescent staining of the paraffin block sections. […]
The structure of the regrowing organoids was analyzed by pathological analysis in the same manner as in Example 1-3. […]

For the next assay, the system named is LGR5. Briefly: FACS measurement of LGR5 expression in organoids. The note with it: organoids immediately after SN-38 treatment; FIG. 8. The procedure: […] […] […] The resulting cells were reacted with 2 μg/mL anti-LGR5 antibody (clone 2L36 (Stem Cells, 30, 2631-2644 (2012))) or control mouse IgG2a antibody (clone MG2a-53, Cat #401502, BioLegend) at 4° C. for 1 hour, and then reacted with a PE-labeled secondary antibody (Cat #P-21139, Thermo Fisher Scientific) for 30 minutes at 4° C. Then dead cells were stained with 7-AAD Viability Dye (Cat #A07704, Beckman Coulter) and measured with a flow cytometer (BD FACSAria III, BD Biosciences). PBS containing 2% fetal bovine serum and 0.1% NaN3 was used as the buffer. Data were analyzed using BD FACSDiva (version 8.0.1, BD Biosciences) and FlowJo (version 7.6.5, BD Biosciences).

On to `CC(=O)OC[C@H]1O[C@@H]([S-])[C@H](OC(C)=O)[C@@H](OC(C)=O)[C@@H]1OC(C)=O.CCP(CC)CC.[Au+]` [AUR, auranofin], for which, in the assay on PLR123 organoids [1], the “organoid regrowth (cell proliferation)” value is recorded as “suppressed only when both inhibitors were used in combination”.
As for `CCCCS(=N)(=O)CCC(N)C(=O)O` [BSO, L-buthionine-sulfoximine], the “organoid regrowth (cell proliferation)” value in the assay with PLR123 organoids [1] was “suppressed only when both inhibitors were used in combination”.
As to `CCc1c2c(nc3ccc(O)cc13)-c1cc3c(c(=O)n1C2)COC(=O)[C@]3(O)CC` [SN-38, 7-ethyl-10-hydroxycamptothecin], in the assay on GPX1 [2], the “expression of GPX1 (RNA-seq)” value is listed as “increased by two-fold or more”. The “expression of GPX2 (RNA-seq)” value in the assay with GPX2 [3] is on record as “increased by two-fold or more”. The “protein expression of GPX1 (IHC)” value with GPX1 [4] is on record as “increased”. The “protein expression of GPX2 (IHC)” value in the assay with GPX2 [5] was “increased”. In addition, in the assay on PLR123 organoids [6], the organoid structure entry was “once disrupted”. Moreover, the “LGR5 expression (FACS)” value in the assay on LGR5 is given as “almost no LGR5 expression was observed”.

(Values after patent US20210293769A1, “METHOD FOR CULTURING CANCER TISSUE OR TISSUE ANALOGOUS TO CANCER TISSUE” (Chugai Seiyaku Kabushiki Kaisha, priority 2018, published 2021).)
